In patent publication US20050124963A1, “Method for treating aspects of alcoholism, addiction and psychosis” (priority 2003, published 2005):
Where two headings read alike, the source gives them in different places.

Assays:
D2 receptor = D2 receptor (Homo sapiens, UniProt P14416); conditions: 1-100 nM dopamine, in vitro; cited from earlier work
striatal D2 receptors = biological target: T1, striatal D2 receptors (Rattus norvegicus, UniProt P61169); test: [3H]PHNO binding to striatal D2 receptors; conditions: control striata
T1 construct: each rat underwent CO2 narcosis and cervical dislocation; the striata were removed; from tissue; host or cells: rat striatum (male Sprague Dawley)
T1 sequence (P61169 whole entry): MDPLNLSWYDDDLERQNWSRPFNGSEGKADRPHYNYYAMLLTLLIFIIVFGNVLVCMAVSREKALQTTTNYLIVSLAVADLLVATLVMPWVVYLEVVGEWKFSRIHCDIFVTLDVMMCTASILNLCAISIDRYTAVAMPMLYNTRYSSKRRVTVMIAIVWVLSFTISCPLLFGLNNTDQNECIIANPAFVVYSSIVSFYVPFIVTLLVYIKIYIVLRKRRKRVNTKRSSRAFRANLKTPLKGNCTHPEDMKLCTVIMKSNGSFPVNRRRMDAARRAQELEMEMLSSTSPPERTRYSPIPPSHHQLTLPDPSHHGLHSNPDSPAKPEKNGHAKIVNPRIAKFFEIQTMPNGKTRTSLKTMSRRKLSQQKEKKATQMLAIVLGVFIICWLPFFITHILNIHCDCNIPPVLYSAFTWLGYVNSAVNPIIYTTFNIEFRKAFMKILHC
Experimental: To induce ethanol dependence, rats (male Sprague Dawley, 200 g) received an intraperitoneal injection of 0.9% NaCl or 2 g/kg ethanol twice daily (i.e., 1.4 ml of 18% ethanol [in 0.9% NaCl] per 100 g at 9 AM and again at 3 PM daily) for 10 days (Lindholm et al., Alcohol 22: 165-171, 2000). On different days during the withdrawal period, each rat underwent CO2 narcosis and cervical dislocation; the striata were removed. The frozen (−70° C.) striata were blotted and weighed. […] The binding of [^3H]PHNO (or [+]-4-propyl-9-hydroxynaphthoxazine) (0.1 to 4.5 nM; […]; custom synthesized by New England Nuclear Corp.; non-specific binding defined by 10 μM S-(−)-sulpiride) to striatal D2 receptors was done as reported elsewhere (Seeman et al., Synapse 14: 254-262, 1993; Synapse 46: 235-239, 2002).
To confirm the elevation of D2^High sites by another method, [^3H]PHNO (or [+]-4-propyl-9-hydroxynaphthoxazine), a selective D2 agonist (Seeman et al., Synapse 14: 254-262, 1993) can be used.

[1] = tested on: high-affinity states of D2; conditions: rats sensitized to amphetamine; cited from earlier work
[2] = biological target: T2, high-affinity state of dopamine D2 receptor (D2High) (Rattus norvegicus, UniProt P61169)
T2 sequence (P61169 whole entry): as above

[3] = biological target: T2, high-affinity state of dopamine D2 receptor (D2High); conditions: 7 days withdrawal, [3H]PHNO
[4] = tested on: high-affinity state of dopamine D2 receptor (D2High); format: in vivo, rat
[5] = first eight days after stopping ethanol, [3H]raclopride

D2 receptor, sequence (P14416 whole entry): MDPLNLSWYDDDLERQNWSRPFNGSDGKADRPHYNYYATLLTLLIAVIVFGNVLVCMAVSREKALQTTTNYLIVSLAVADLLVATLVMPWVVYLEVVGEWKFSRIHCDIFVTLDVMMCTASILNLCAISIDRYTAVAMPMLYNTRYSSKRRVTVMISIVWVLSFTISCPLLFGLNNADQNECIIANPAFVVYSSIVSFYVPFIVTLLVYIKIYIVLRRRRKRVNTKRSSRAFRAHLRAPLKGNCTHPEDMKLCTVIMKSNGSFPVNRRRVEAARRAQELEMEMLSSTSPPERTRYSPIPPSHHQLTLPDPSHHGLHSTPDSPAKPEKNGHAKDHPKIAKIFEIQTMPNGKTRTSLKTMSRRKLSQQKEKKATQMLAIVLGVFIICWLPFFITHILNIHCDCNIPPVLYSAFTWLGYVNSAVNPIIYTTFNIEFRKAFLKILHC

In the case of `CCN1CCC[C@H]1CNC(=O)c1c(O)c(Cl)cc(Cl)c1OC` (racemic) [[^3H]raclopride], the “displacement by low concentrations of dopamine” value (D2 receptor) is listed as “not significantly displaced”.
For `CCCN1CCOC2c3cc(O)ccc3CCC21` (stereo not drawn) [[^3H]PHNO, [+]-4-propyl-9-hydroxynaphthoxazine], the Kd (striatal D2 receptors) was 710 pM.
In the case of `CC(N)Cc1ccccc1` (stereo not drawn) [amphetamine], the “elevation of high-affinity states of D2” value [1] is given as “over 350%”.
For `CCO` [ethanol], the “duration of elevation of D2High sites after ethanol withdrawal” value ([2]; before returning to normal) was “almost two weeks”, the D2High sites ([2]; day 15 after stopping ethanol (back to normal)) was ≤ 2 pmol/g and the D2High sites ([2]; days 11 and 12 after stopping ethanol) was 4.8 pmol/g. The “increase in D2High” value ([2]; ethanol-withdrawn) was 3.2 fold, the D2 density ([2]; first eight days after stopping ethanol (2 g/kg i.p. twice daily, 10 days), [3H]raclopride, no guanilylimidodiphosphate) was 19 ± 0.8 pmol/g and the “D2High density (increase in receptor density with guanilylimidodiphosphate)” value [2, 5] was 7.2 ± 0.6 pmol/g. The “D2 density in the presence of guanilylimidodiphosphate” value [2, 5] was 26.1 ± 0.8 pmol/g, the “increase of D2High over control value of 2 pmol/g” value ([2]; upon withdrawal of ethanol, [3H]raclopride) was 360% and the “increase of D2High over control value of 2.6 pmol/g” value [3] was 273%. The D2High ([3]; ethanol-treated striata) was 7.1 pmol/g.
For `FC(F)OC(Cl)C(F)(F)F` (stereo not drawn) [isoflurane], the D2High density ([4]; ethanol-treated rats five days into withdrawal, isoflurane one hour (deep stage 3 surgical anesthesia), striata 24 hours later) was 1.3 pmol/g and the “effect on elevated D2High” value ([4]; one hour of deep general anesthesia, ethanol-withdrawn rats) was “restored D2^High to normal”.
